According to patent US20240025887A1, “THIENYL AND CYCLOALKYL AMINOPYRIMIDINE COMPOUNDS AS INHIBITORS OF NUAK KINASES, COMPOSITIONS AND USES THEREOF” (Ontario Institute for Cancer Research (OICR), priority 2021, published 2024):

Columns and labels:
Format in all cases: biochemical
Aurora A = target: T1, Aurora A (Homo sapiens, UniProt O14965); assay: Aurora A counter screen; settings: read-out: AUR-A (IC50)
T1 sequence (O14965 1-403): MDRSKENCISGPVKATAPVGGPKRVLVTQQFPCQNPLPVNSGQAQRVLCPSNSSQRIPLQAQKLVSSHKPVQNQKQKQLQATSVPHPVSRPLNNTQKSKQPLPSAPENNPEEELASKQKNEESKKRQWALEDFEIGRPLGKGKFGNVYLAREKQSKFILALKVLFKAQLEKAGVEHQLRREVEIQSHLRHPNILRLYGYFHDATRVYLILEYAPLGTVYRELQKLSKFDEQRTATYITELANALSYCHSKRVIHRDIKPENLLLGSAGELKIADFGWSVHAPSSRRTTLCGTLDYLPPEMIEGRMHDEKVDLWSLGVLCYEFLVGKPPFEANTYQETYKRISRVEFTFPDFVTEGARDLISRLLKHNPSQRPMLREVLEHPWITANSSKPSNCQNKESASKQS
Procedure: (§1) To identify small molecule NUAK inhibitors, a biochemical NUAK2 enzymatic assay was outsourced to Eurofins. This assay was done radiometrically using full-length, recombinant enzyme. NUAK2 (h) was incubated with 8 mM MOPS pH 7.0, 0.2 mM EDTA, 300 μM […], 10 mM magnesium acetate and […] (specific activity and concentration as required). The reaction was initiated by the addition of the Mg/ATP mix. After incubation for 40 minutes at room temperature, the reaction was stopped by the addition of phosphoric acid to a concentration of 0.5%. 10 μL of the reaction was then spotted onto a P30 filter mat and washed four times for 4 minutes in 0.425% phosphoric acid and once in methanol prior to drying and scintillation counting. Compounds were routinely counter screened against Aurora A and NUAK1. The results are shown in Table 1 where IC50s are reported the following ranges: A: 0.1-10 nM; B: 11-100 nM; C: 101-1000 nM; D: >1000 nM for the compounds of Formula I)

NUAK2 (h) = target: T2, NUAK2 (h) (Homo sapiens, UniProt Q9H093); assay: NUAK2 enzymatic assay (radiometric, Eurofins); settings: for AUR-A (IC50, nM)/NUAK2 (IC50, nM): NUAK2 selectivity over Aurora-A, ratio of IC50s; for IC50: radiometric, full-length recombinant enzyme
T2 construct: This assay was done radiometrically using full-length, recombinant enzyme; purchased Eurofins
T2 sequence (Q9H093 1-628): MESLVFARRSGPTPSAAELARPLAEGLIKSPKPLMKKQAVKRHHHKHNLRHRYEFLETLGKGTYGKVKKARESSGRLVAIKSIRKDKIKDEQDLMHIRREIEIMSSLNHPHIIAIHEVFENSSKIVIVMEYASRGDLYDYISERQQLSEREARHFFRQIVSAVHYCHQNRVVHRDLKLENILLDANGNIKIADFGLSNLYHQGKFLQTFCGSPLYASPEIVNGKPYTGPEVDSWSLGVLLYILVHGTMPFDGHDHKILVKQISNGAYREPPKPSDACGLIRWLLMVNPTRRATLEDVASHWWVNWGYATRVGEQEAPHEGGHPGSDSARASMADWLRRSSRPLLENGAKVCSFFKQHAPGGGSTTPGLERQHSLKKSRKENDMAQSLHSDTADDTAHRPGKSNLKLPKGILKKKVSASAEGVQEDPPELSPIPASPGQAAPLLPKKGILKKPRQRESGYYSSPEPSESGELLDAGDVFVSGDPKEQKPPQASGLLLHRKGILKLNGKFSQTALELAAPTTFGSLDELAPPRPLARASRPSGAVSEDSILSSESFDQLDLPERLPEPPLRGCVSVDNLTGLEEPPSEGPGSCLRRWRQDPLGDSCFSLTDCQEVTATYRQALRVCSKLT
Procedure: as §1

NUAK1 = target: T3, NUAK1 (Homo sapiens, UniProt O60285); assay: NUAK1 counter screen
T3 sequence (O60285 1-661): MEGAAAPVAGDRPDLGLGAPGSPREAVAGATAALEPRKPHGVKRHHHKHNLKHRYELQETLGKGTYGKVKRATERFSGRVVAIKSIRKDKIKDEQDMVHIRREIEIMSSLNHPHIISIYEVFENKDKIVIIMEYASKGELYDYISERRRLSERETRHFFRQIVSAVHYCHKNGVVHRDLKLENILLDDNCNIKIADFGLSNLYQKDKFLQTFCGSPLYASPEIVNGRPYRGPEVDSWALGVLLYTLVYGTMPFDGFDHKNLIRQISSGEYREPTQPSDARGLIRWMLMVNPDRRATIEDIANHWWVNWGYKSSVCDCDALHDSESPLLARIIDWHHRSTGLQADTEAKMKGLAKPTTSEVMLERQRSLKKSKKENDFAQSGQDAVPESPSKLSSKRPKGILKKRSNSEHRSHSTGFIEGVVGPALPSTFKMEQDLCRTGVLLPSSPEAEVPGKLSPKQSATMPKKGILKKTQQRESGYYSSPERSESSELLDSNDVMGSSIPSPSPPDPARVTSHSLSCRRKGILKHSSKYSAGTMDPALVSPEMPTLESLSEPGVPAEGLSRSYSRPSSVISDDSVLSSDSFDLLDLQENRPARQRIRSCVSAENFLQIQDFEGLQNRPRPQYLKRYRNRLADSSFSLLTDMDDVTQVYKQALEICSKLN
Procedure: as §1

| SMILES | IC50 (Aurora A) | AUR-A (IC50, nM)/NUAK2 (IC50, nM) (NUAK2 (h)) | IC50 (NUAK2 (h)) | IC50 (NUAK1) |
| --- | --- | --- | --- | --- |
| Cc1c(Nc2ncc(Cl)c(Nc3ccsc3C(N)=O)n2)ccc(N2CCN(C)CC2)c1F [Compound C-5, reference compound] | 101 to 1000 nM | 14 | 0.1 to 10 nM | 11 to 100 nM |
| CN1CCN(c2ccc(Nc3nccc(Nc4ccsc4C(N)=O)n3)c(OC(F)F)c2)CC1 [Compound I-3, 3-((2-((2-(difluoromethoxy)-4-(4-methylpiperazin-1-yl)phenyl)amino)pyrimidin-4-yl)amino)thiophene-2-carboxamide] | > 1000 nM |  | 101 to 1000 nM | 101 to 1000 nM |
| CN1CCCN(C2CCN(c3ccc(Nc4ncc(Cl)c(Nc5ccsc5C(N)=O)n4)c(OC(F)F)c3)CC2)CC1 [Compound I-72, 3-((5-chloro-2-((2-(difluoromethoxy)-4-(4-(4-methyl-1,4-diazepan-1-yl)piperidin-1-yl)phenyl)amino)pyrimidin-4-yl)amino)thiophene-2-carboxamide] | 101 to 1000 nM |  | 11 to 100 nM | 11 to 100 nM |
| C[C@@H]1CN(c2ccc(Nc3ncc(Cl)c(Nc4ccsc4C(N)=O)n3)c(OC(F)F)c2)C[C@H](C)N1C [Compound I-8, 3-((5-chloro-2-((2-(difluoromethoxy)-4-((3R,5S)-3,4,5-trimethylpiperazin-1-yl)phenyl)amino)pyrimidin-4-yl)amino)thiophene-2-carboxamide] | 11 to 100 nM |  | 0.1 to 10 nM | 0.1 to 10 nM |
| COc1c(Nc2ncc(Cl)c(Nc3ccsc3C(N)=O)n2)ccc(N2CCN(C)CC2)c1F [Compound C-2, reference compound] | 101 to 1000 nM | 71 | 0.1 to 10 nM | 0.1 to 10 nM |
| CN1CCN(C2CCN(c3ccc(Nc4ncc(C#N)c(Nc5ccsc5C(N)=O)n4)c(OC(F)F)c3)CC2)CC1 [Compound I-80, 3-((5-cyano-2-((2-(difluoromethoxy)-4-(4-(4-methylpiperazin-1-yl)piperidin-1-yl)phenyl)amino)pyrimidin-4-yl)amino)thiophene-2-carboxamide] | 101 to 1000 nM |  | 11 to 100 nM | 11 to 100 nM |
| CC(C)Oc1cc(N2CCN(C)CC2)ccc1Nc1ncc(Cl)c(N[C@@H]2CCCC[C@@H]2C(N)=O)n1 [Compound C-6, reference compound] | > 1000 nM | 14 | 101 to 1000 nM | > 1000 nM |
| CN1CCC(c2ccc(Nc3ncc(Cl)c(Nc4ccsc4C(N)=O)n3)c(OC(F)F)c2)CC1 [Compound I-25, 3-((5-chloro-2-((2-(difluoromethoxy)-4-(1-methylpiperidin-4-yl)phenyl)amino)pyrimidin-4-yl)amino)thiophene-2-carboxamide] | 101 to 1000 nM |  | 11 to 100 nM | 11 to 100 nM |

Results, then the molecule that gave them:

| IC50 (Aurora A) | AUR-A (IC50, nM)/NUAK2 (IC50, nM) (NUAK2 (h)) | IC50 (NUAK2 (h)) | IC50 (NUAK1) | SMILES |
| --- | --- | --- | --- | --- |
| 101 to 1000 nM |  | 11 to 100 nM | 11 to 100 nM | CN1CCC2(CC1)CCN(c1ccc(Nc3ncc(Cl)c(Nc4ccsc4C(N)=O)n3)c(OC(F)F)c1)CC2 [Compound I-54, 3-((5-chloro-2-((2-(difluoromethoxy)-4-(9-methyl-3,9-diazaspiro[5.5]undecan-3-yl)phenyl)amino)pyrimidin-4-yl)amino)thiophene-2-carboxamide] |
| 101 to 1000 nM |  | 101 to 1000 nM | 101 to 1000 nM | NC(=O)c1sccc1Nc1nc(Nc2ccc(N3CCN(CC(F)(F)F)CC3)cc2OC(F)F)ncc1Cl [Compound I-33, 3-((5-chloro-2-((2-(difluoromethoxy)-4-(4-(2,2,2-trifluoroethyl)piperazin-1-yl)phenyl)amino)pyrimidin-4-yl)amino)thiophene-2-carboxamide] |
| 11 to 100 nM |  | 11 to 100 nM | 11 to 100 nM | C[C@H]1CN(C)CCN1C1CCN(c2ccc(Nc3ncc(Cl)c(Nc4ccsc4C(N)=O)n3)c(OC(F)F)c2)CC1 [Compound I-70, (S)-3-((5-chloro-2-((2-(difluoromethoxy)-4-(4-(2,4-dimethylpiperazin-1-yl)piperidin-1-yl)phenyl)amino)pyrimidin-4-yl)amino)thiophene-2-carboxamide] |
| 101 to 1000 nM |  | 11 to 100 nM | 11 to 100 nM | Cc1cnc(Nc2ccc(N3CCN(C(C)C)CC3)cc2OC(F)F)nc1Nc1ccsc1C(N)=O [Compound I-17, 3-((2-((2-(difluoromethoxy)-4-(4-isopropylpiperazin-1-yl)phenyl)amino)-5-methylpyrimidin-4-yl)amino)thiophene-2-carboxamide] |
| 101 to 1000 nM |  | 0.1 to 10 nM | 0.1 to 10 nM | NC(=O)c1sccc1Nc1nc(Nc2ccc(N3CCC(N4CCCCC4)CC3)cc2OC(F)F)ncc1Cl [Compound I-58, 3-((2-((4-([1,4′-bipiperidin]-1′-yl)-2-(difluoromethoxy)phenyl)amino)-5-chloropyrimidin-4-yl)amino)thiophene-2-carboxamide] |
| 11 to 100 nM |  | 0.1 to 10 nM | 0.1 to 10 nM | NC(=O)c1sccc1Nc1nc(Nc2ccc(N3CCC(N4CCCC4)CC3)cc2OC(F)F)ncc1Cl [Compound I-48, 3-((5-chloro-2-((2-(difluoromethoxy)-4-(4-(pyrrolidin-1-yl)piperidin-1-yl)phenyl)amino)pyrimidin-4-yl)amino)thiophene-2-carboxamide] |
| 101 to 1000 nM |  | 0.1 to 10 nM | 0.1 to 10 nM | CCN1CCN(c2ccc(Nc3ncc(Cl)c(Nc4cscc4C(N)=O)n3)c(OC(F)F)c2)CC1 [Compound I-14, 4-((5-chloro-2-((2-(difluoromethoxy)-4-(4-ethylpiperazin-1-yl)phenyl)amino)pyrimidin-4-yl)amino)thiophene-3-carboxamide] |
| 101 to 1000 nM |  | 11 to 100 nM | 11 to 100 nM | NC(=O)c1sccc1Nc1nc(Nc2ccc(N3CCN4CCOC[C@H]4C3)cc2OC(F)F)ncc1Cl [Compound I-45, (R)-3-((5-chloro-2-((2-(difluoromethoxy)-4-(hexahydropyrazino[2,1-c][1,4]oxazin-8(1H)-yl)phenyl)amino)pyrimidin-4-yl)amino)thiophene-2-carboxamide] |
| 101 to 1000 nM |  | 11 to 100 nM | 11 to 100 nM | NC(=O)c1sccc1Nc1nc(Nc2ccc(N3CCOCC3)cc2OC(F)F)ncc1C(F)(F)F [Compound I-39, 3-((2-((2-(difluoromethoxy)-4-morpholinophenyl)amino)-5-(trifluoromethyl)pyrimidin-4-yl)amino)thiophene-2-carboxamide] |
| 101 to 1000 nM | 137 | 0.1 to 10 nM | 11 to 100 nM | NC(=O)c1sccc1Nc1nc(Nc2ccc(N3CCN4CCC[C@@H]4C3)cc2OC(F)F)ncc1Cl [Compound I-44, (R)-3-((5-chloro-2-((2-(difluoromethoxy)-4-(hexahydropyrrolo[1,2-a]pyrazin-2(1H)-yl)phenyl)amino)pyrimidin-4-yl)amino)thiophene-2-carboxamide] |
